Measured values reported in ChEMBL document CHEMBL1131938, “Leucine-phenylalanine dipeptide-based N-mesyloxysuccinimides: synthesis of all four stereoisomers and their assay against serine proteases” (Bioorg Med Chem Lett, 1999).

What was measured:
[1] = target: T1, Neutrophil elastase (Homo sapiens) (UniProt P08246); assay: Inhibitory activity against human neutrophil elastase after 30 min incubation; set-up: concentration or dose not given beside the values
T1 sequence (whole entry): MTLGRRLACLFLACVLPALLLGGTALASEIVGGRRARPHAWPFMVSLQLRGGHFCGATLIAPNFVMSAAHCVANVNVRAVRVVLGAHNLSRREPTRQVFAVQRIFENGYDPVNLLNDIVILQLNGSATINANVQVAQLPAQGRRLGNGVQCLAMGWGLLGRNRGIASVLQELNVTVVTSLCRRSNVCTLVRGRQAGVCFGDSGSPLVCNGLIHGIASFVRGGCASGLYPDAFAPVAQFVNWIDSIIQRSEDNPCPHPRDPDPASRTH

[2] = target: Chymotrypsinogen A (Bos taurus) (UniProt P00766); assay: Inhibitory activity against Chymotrypsinogen was determined
[3] = target: Chymotrypsinogen A (Bos taurus) (UniProt P00766); assay: Inhibitory activity against Chymotrypsinogen enzyme was determined

| SMILES | inhibition [1] [%] | k obs / 1 [2] [M⁻¹ s⁻¹] | k obs / 1 [3] [M⁻¹ s⁻¹] |
| --- | --- | --- | --- |
| CC(=O)N[C@@H](CC(C)C)C(=O)N[C@@]1(Cc2ccccc2)CC(=O)N(OS(C)(=O)=O)C1=O | 24 | 28 |  |
| CC(=O)N[C@H](CC(C)C)C(=O)N[C@@]1(Cc2ccccc2)CC(=O)N(OS(C)(=O)=O)C1=O | 6 |  | 9 |
| CCCCOC(=O)N[C@@H](CC(C)C)C(=O)N[C@]1(Cc2ccccc2)CC(=O)N(OS(C)(=O)=O)C1=O | 48 |  | 180 |
| CC(=O)N[C@H](CC(C)C)C(=O)N[C@]1(Cc2ccccc2)CC(=O)N(OS(C)(=O)=O)C1=O | 72 |  | 244 |
| CC(=O)N[C@@H](CC(C)C)C(=O)N[C@]1(Cc2ccccc2)CC(=O)N(OS(C)(=O)=O)C1=O | 63 |  | 170 |
| CC(=O)N[C@]1(Cc2ccccc2)CC(=O)N(OS(C)(=O)=O)C1=O | 56 |  | 217 |
